By EC50 is commonly meant the concentration giving half of the maximal effect.

The target in assay [1] is T1, PPARγ (Homo sapiens, UniProt P37231).
T1 construct: Following the challenge of the preadipocytes, cells may be lysed with lysis buffer; endogenous in cells; host or cells: preadipocytes
T1 sequence (P37231 1-505): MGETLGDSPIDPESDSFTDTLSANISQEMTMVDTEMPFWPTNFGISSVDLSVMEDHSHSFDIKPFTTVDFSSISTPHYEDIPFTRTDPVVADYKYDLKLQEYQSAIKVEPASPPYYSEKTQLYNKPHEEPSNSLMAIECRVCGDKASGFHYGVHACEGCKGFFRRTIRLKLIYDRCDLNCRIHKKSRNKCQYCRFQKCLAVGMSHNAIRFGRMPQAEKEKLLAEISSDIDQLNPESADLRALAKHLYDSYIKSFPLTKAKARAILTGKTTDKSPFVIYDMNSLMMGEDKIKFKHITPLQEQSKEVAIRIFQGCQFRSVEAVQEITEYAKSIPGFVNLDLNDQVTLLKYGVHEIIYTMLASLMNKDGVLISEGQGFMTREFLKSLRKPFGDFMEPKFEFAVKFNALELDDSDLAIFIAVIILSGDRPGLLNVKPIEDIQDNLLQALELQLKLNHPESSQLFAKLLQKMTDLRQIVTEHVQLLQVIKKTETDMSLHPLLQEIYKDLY
The experiment in a line: aP2 Assay for PPAR gamma Agonists (bDNA aP2 mRNA in preadipocytes). The conditions noted are these: for PPARγ FI: fold induction, PPARγ standard: FI = 70.3; for EC50: values in square brackets. The assay is classed as cell-based. The text has this: aP2 Assay for PPAR gamma Agonists
The procedure is described in detail in Burris et al., Molecular Endocrinology, 1999, 13:410, which is hereby incorporated by reference in its entirety, and aP2 assay results of agonist intrinsic activity may be presented as fold increase over vehicle in induction of aP2 mRNA production.
Twenty-four hours after the initial seeding of the 96-well plates by hand (around 20,000/well), the differentiation assay may be initiated. Medium may be removed and replaced with […] of differentiation medium containing vehicle (DMSO) or test compounds. Cells may be returned to incubator for 24 hours culture. At the termination of the challenge, medium may be removed and 100 ul of lysis buffer may be added to initiate the bDNA aP2 mRNA assay. The branched DNA assay may be performed according to the manufacturer's protocol (Bayer Diagnostics; Emeryville, Calif.). Result may be expressed as the fold increase of aP2 mRNA production activated over vehicle controls. EC50's and Emax may be determined by non-linear regression with a sigmoidal fit curve.
Following the challenge of the preadipocytes, cells may be lysed with lysis buffer (Bayer Diagnostics) containing the aP2 oligonucleotides. After a 15 minute incubation at 53° C. or 30 minutes at 37° C. incubator, 70 ul of the lysis buffer from each well may be added to a corresponding capture well (preincubated with 70 ul of blocking buffer (Bayer Diagnostics)). The capture plate may be incubated overnight at 53° C. in a plate incubator (Bayer Diagnostics). After this incubation, the bDNA and labeled probes may be annealed as directed by the manufacturer. Following a 30-minute incubation with the luminescent alkaline phosphatase substrate, dioxitane, the luminescence may be quantitated in a Dynex MLX microtiter plate luminometer. Oligonucleotide probes designed to anneal to the aP2 mRNA and function in the bDNA mRNA detection system are designed with ProbeDesigner software (Bayer Diagnostics). This software package analyzes a target sequence of interest with a series of algorithms in order to determine which regions of the sequence can perform as locations for capture, label, or spacer probe annealing. The sequences of the oligonucleotides are as follows: […]

Assay [2] addresses T2, PPARα (Rattus norvegicus, UniProt P37230).
T2 construct: H4IIE rat hepatoma cell line was obtained from ATCC; host or cells: H4IIE rat hepatoma cells
T2 sequence (P37230 1-468): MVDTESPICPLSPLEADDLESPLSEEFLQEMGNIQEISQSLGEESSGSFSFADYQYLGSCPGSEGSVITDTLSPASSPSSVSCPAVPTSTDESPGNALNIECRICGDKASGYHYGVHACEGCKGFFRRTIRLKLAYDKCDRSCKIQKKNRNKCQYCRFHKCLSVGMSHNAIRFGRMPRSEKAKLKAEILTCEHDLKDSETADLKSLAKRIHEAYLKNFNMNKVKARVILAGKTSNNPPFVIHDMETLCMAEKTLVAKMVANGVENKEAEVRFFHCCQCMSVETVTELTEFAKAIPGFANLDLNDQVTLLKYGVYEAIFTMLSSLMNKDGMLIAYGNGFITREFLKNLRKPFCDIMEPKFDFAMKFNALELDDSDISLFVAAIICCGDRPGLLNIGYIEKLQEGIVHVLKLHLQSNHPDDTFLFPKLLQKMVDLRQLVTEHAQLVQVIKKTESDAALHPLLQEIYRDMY
The experiment in a line: HD bDNA Assay (HD gene induction). The assay is classed as cell-based. The note with it: in section F; target not named there, values match the PPARα column; read-out: EC50. As to the method: HD bDNA Assay H4IIE rat hepatoma cell line was obtained from ATCC. Cells were cultured in 175 cm^2 tissue culture flask or seeded in 96-well plate with (high serum content, 10% fetal bovine serum and 10% calf serum) culture medium and maintained at 37° C. and 5% CO2 throughout study. Twenty-four hours after the initial seeding of the 96-well plate by hand (approximate 100,000/well), the HD gene induction assay was initiated. Media was removed and replaced with 100 ul of low serum culture media (5% charcoal/dextran treated calf serum) containing vehicle (DMSO) or test compounds or standard. Cells returned to incubator for 24 hours culture. At the termination of the challenge, 50 ul lysis buffer with HD gene specific CE, LE, BL probes was added directly into each well to initiate the bDNA HD mRNA assay. The branched DNA assay was performed according to the manufacturer's protocol (Bayer Diagnostics; Emeryville. Calif.). At the end of the assay, the luminescence was quantitated in Dynex MLX microtiter plate luminometer. EC50's were determined by non-linear regression with a sigmoidal fit utilizing Graphpad Prism.

Assay [3] concerns db/db mice. The assay can be described thus: Oral dosing in female db/db mice. The note with it: Mus musculus, 120 h, 1.0 mpk, 5 day oral dosing, % change compared to vehicle. The assay is classed as in vivo. As to the method:
The compound was prepared as suspensions in 0.5% hydroxypropylmethylcellulose (Dow Chemical, Midland, Mich.). The dosing volume was 10 mL/kg of body weight. […] Body weight was measured in the mornings on Day 1, prior to dosing, and on Day 12 before bleeding. 18-24 hours after the final dose for each group, the mice were anesthetized with CO2/O2 (70:30) and bled by retro-orbital sinus puncture into micro-tubes containing clog activator and then put in ice. The serum samples were prepared by centrifugation. Serum glucose and triglycerides were determined by using COBAS Mira Plus blood chemistry analyzer (Roche Diagnostics, N.J.). Serum insulin was measured by using ALPCO insulin ELISA kit.
Statistical analysis was performed using the program Prism (Graphpad, Monrovia, Calif.) and performing one-way ANOVA with a Dunnet's multiple comparison test.

The target of assay [4] is T3, PPARδ (Homo sapiens, UniProt Q03181).
T3 construct: a Gal4-Luciferase reporter is co-transfected
T3 sequence (Q03181 171-441 limits assumed): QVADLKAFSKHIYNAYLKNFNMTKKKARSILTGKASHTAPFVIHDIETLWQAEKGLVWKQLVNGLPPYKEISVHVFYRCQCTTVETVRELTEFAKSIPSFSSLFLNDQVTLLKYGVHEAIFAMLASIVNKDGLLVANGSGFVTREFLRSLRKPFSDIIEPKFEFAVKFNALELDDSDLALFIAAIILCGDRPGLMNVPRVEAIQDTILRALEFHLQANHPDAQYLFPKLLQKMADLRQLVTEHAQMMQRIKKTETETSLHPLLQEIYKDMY
The experiment in a line: Transfection Assay for PPARδ Receptors (PPAR-Gal4 / Gal4-Luciferase reporter in HEK293 cells). The note with it: for EC50: values in square brackets. The assay is classed as cell-based. As to the method: Transfection Assay for PPARδ Receptors
HEK293 cells were grown in DMEM/F-12 Media supplemented with 10% FBS and glutamine (GIBCOBRL). The cells were co-transfected with DNA for PPAR-Gal4 receptor and Gal4-Luciferase Reporter using the DMRIE-C Reagent. On the following day, the DNA-containing medium were replaced with 5% Charcoal treated FBS growth medium. After six hours, cells were seeded in 96 well plate and incubated at 37° C. in CO2 incubator overnight. Cells were challenged by test compounds and incubated for 24 hours at 37° C. in 5% CO2 incubator. Luciferase activity was assayed using the Steady-Glo Luciferase Assay Kit from Promega. DMRIE-C Reagent was purchased from GIBCO Cat. No.10459-014. OPTI-MEM I Reduced Serum Medium was purchased from GIBCO Cat. No. 31985. Steady-Glo Luciferase Assay Kit was obtained from Promega Part# E254B.
(A reporter such as luciferase makes a cellular process visible.)

The structures appear in SMILES notation. Where two headings read alike, the source gives them in different places.

`CCN(C(=O)Nc1ccc(SC(F)(F)F)cc1)C1Cc2ccc(SC(C)(C)C(=O)O)cc2C1` (centres unmarked) [Example 4, 2-{2-[1-Ethyl-3-(4-trifluoromethylsulfanylphenyl)ureido]indan-5-ylsulfanyl}-2-methylpropionic acid]: the “PPARγ FI” value in assay [1] was determined as 3.7. Also, in assay [2], the EC50 worked out at 37 nM. The change in vivo at 1 mg/kg in assay [3] (read-out: Δ BW) is -11%; in assay [3] (read-out: Δ Plasma Glucose), -49%; in assay [3] (read-out: Δ Plasma Insulin) it was -13%; in assay [3] (read-out: Δ Plasma TG), -47%.

On to `CCCCCN(C(=O)Nc1ccc(-c2ccccc2)cc1)C1Cc2ccc(SC(C)(C)C(=O)O)cc2C1` (centres unmarked) [Example 12], for which the “PPARγ FI” value in assay [1] stood at 11. In assay [2], the EC50 turned out to be 183 nM.

Take `CCCCCCN(C(=O)Nc1ccc(C(C)C)cc1)C1Cc2ccc(SC(C)(C)C(=O)O)cc2C1` (centres unmarked) [Example 13]: in assay [1], the “PPARγ FI” value is on record as 1.2. Further, the EC50 in assay [2] worked out at 184 nM.

For `CCCCCCN(C(=O)Nc1ccc(OC(F)(F)F)cc1)C1Cc2ccc(SC(C)(C)C(=O)O)cc2C1` (centres unmarked) [Example 14, 2-Methyl-2-{2-[1-hexyl-3-(4-trifluoromethoxyphenyl)ureido]indan-5-ylsulfanyl}propionic acid], the “PPARγ FI” value in assay [1] is recorded as 0.3. Also, in assay [2], the EC50 was found to be 213 nM. In addition, the “PPARδ FI” value in assay [4] (fold induction, PPARδ standard: FI = 36.1) is on record as 1.3.

With `CCCN(C(=O)Nc1ccc(OC(F)(F)F)cc1)C1Cc2ccc(SC(C)(C)C(=O)O)cc2C1` (centres unmarked) [Example 16, 2-Methyl-2-{2-[1-propyl-3-(4-trifluoromethoxyphenyl)ureido]indan-5-ylsulfanyl}propionic acid], the “PPARγ FI” value in assay [1] was 0.37. Also, in assay [2], the EC50 was determined as 158 nM.

Take `CCCCN(C(=O)Nc1ccc(SC(F)(F)F)cc1)C1Cc2ccc(SC(C)(C)C(=O)O)cc2C1` (centres unmarked) [Example 17, 2-Methyl-2-{2-[1-butyl-3-(4-trifluoromethylsulfanylphenyl)ureido]indan-5-ylsulfanyl}propionic acid]: the “PPARγ FI” value in assay [1] is 0.43. Further, in assay [2], the EC50 was determined as 160 nM.

In the case of `CC(C)(Sc1ccc2c(c1)CC(NC(=O)Nc1ccc(OC(F)(F)F)cc1)C2)C(=O)O` (centres unmarked) [Example 18, 2-Methyl-2-{2-[3-(4-trifluoromethoxyphenyl)ureido]indan-5-ylsulfanyl}propionic acid], in assay [1], the “PPARγ FI” value was found to be 0.31. In addition, in assay [2], the EC50 stood at 135 nM.

Turning to `CC(C)CCN(C(=O)Nc1ccc(OC(F)(F)F)cc1)C1Cc2ccc(SC(C)(C)C(=O)O)cc2C1` (centres unmarked) [Example 20, 2-Methyl-2-{2-[1-(3-methylbutyl)-3-(4-trifluoromethoxyphenyl)ureido]indan-5-ylsulfanyl}-2-methylpropionic acid], the “PPARγ FI” value in assay [1] worked out at 0.44. Besides, the EC50 in assay [2] was 106 nM.

Take `CC(C)CCN(C(=O)Nc1ccc(C(C)C)cc1)C1Cc2ccc(SC(C)(C)C(=O)O)cc2C1` (centres unmarked) [Example 21, 2-{2-[3-(4-Isopropylphenyl)-1-(3-methylbutyl)ureido]indan-5-ylsulfanyl}-2-methylpropionic acid]: the “PPARγ FI” value in assay [1] came out at 0.05. The EC50 in assay [2] was 106 nM.

`CCN(C(=O)Oc1ccc(C)cc1)C1CCc2cc(SC(C)(C)C(=O)O)c(Cl)cc2C1` (centres unmarked) [Example 58, 2-{3-Chloro-6-[(4-methyl-phenoxycarbonyl)-ethyl-amino]-5,6,7,8-tetrahydronaphthalen-2-ylsulfanyl}-2-methyl-propionic acid]: the EC50 in assay [1] is over 3000 nM; in assay [2] it was 340 nM; in assay [4] it was 613 nM.

In the case of `CCN(C(=O)Oc1ccc(Cl)cc1)C1CCc2cc(SC(C)(C)C(=O)O)c(Cl)cc2C1` (centres unmarked) [Example 59, 2-{3-Chloro-6-[(4-chloro-phenoxycarbonyl)-ethyl-amino]-5,6,7,8-tetrahydronaphthalen-2-ylsulfanyl}-2-methyl-propionic acid], the EC50 in assay [1] worked out at 1110 nM; in assay [2], 390 nM; in assay [4] it was 655 nM.

Consider `CCN(C(=O)Oc1ccc(OC(F)(F)F)cc1)C1CCc2cc(SC(C)(C)C(=O)O)ccc2C1` (centres unmarked) [Example 60, 2-{6-[Ethyl-(4-trifluoromethoxy-phenoxycarbonyl)-amino]-5,6,7,8-tetrahydronaphthalen-2-ylsulfanyl}-2-methyl-propionic acid], for which the results for the EC50 in assay [1], in assay [2] and in assay [4] were over 3000 nM, 2 nM and over 3000 nM, respectively.

For the origin of these results see patent publication US20040171680A1, “Treating Syndrome X with substituted tetralins and indanes” (priority 2002, published 2004).
